Results as given in patent publication US4217450A, “Imidazoledicarboxylic acid substituted cephalosporin derivatives” (Ajinomoto Company, Incorporated, priority 1977, dated 1980).
In brackets after ≈: the same amount, converted by molar mass. Structures can show the parent of a compound that is named as a salt.

The molecules below were run on Pseudomonas aeruginosa AJ 2116 (assay: MIC using Pseudomonas aeruginosa AJ 2116 as the test organism). Conditions: AJ2116, read-out: MIC (Minimum Inhibitory concentration).
Type: cell-based
From the text: Comparative MIC's for compounds using Pseudomonas aeruginosa AJ 2116 as the test organism are as follows: "MIC" represents the Minimum INhibitory concentration in mcg./ml of the compound required to inhibit the growth of the test organism described.

Compound	MIC
CC1(C)S[C@@H]2[C@H](NC(=O)[C@H](NC(=O)c3nc(S)[nH]c3C(=O)O)c3ccccc3)C(=O)N2[C@H]1C(=O)O [IV, D-α-(2-mercapto-4-carboxyimidazole-5-carboxamido)benzylpenicillin]	50 µg/mL (≈ 96.2 µM)
CC1(C)S[C@@H]2[C@H](NC(=O)C(C(=O)O)c3ccccc3)C(=O)N2[C@H]1C(=O)O (some centres unmarked) [Carbenicillin, reference compound]	100 µg/mL (≈ 264 µM)
O=C([O-])C1=C(C[n+]2ccc(CCS(=O)(=O)O)cc2)CS[C@@H]2[C@H](NC(=O)[C@H](NC(=O)c3nc[nH]c3C(=O)O)c3ccccc3)C(=O)N12 [IX, 7-β-[D-(-)-α-(4-carboxyimidazole-5-carboxamido)phenylacetamido]-3-(4-β-sulphoethylpyridinium)-methyl-3-cephem-4-carboxylic acid]	12.5 µg/mL (≈ 18.6 µM)
CC1(C)S[C@@H]2[C@H](NC(=O)[C@H](NC(=O)c3nc(O)[nH]c3C(=O)O)c3ccccc3)C(=O)N2[C@H]1C(=O)O [III, D-α-(2-hydroxy-4-carboxyimidazole-5-carboxamido)benzylpenicillin]	25 µg/mL (≈ 49.7 µM)
NC(=O)c1cc[n+](CC2=C(C(=O)[O-])N3C(=O)[C@@H](NC(=O)[C@H](NC(=O)c4nc[nH]c4C(=O)O)c4ccccc4)[C@H]3SC2)cc1 [II, 7-β-[D-(-)-α-(4-carboxyimidazole-5-carbox-amido)-phenylacetoamido]-3-(4-carbamoylpyridinium)methyl-3-cephem-4-carboxylic acid.mixture of K and Na salt.trihydrate]	12.5 µg/mL
Cn1nnnc1SCC1=C(C(=O)O)N2C(=O)[C@@H](NC(=O)[C@H](NC(=O)c3nc[nH]c3C(=O)O)c3ccccc3)[C@H]2SC1 [VIII, 7-β-[-(-)-α-(4-carboxyimidazole-5-carboxamido)phenylacetamido]-3-[[(1-methyl-1H-tetrazol-5-yl)thio]methyl]-3-cephem-4-carboxylic acid]	50 µg/mL (≈ 83.4 µM)
CC1(C)S[C@@H]2[C@H](NC(=O)[C@H](NC(=O)c3nc(Cl)[nH]c3C(=O)O)c3ccccc3)C(=O)N2[C@H]1C(=O)O [VI, D-α-(2-chloro-4-carboxyimidazole-5-carboxamido)benzylpenicillin]	50 µg/mL (≈ 95.8 µM)
CC1(C)S[C@@H]2[C@H](NC(=O)[C@H](NC(=O)c3nc[nH]c3C(=O)O)c3ccccc3)C(=O)N2[C@H]1C(=O)O [I, D-α-(4-carboxyimidazole-5-carboxyamido)benzylpenicillin disodium salt monohydrate]	12.5 µg/mL
Cc1nc(C(=O)N[C@@H](C(=O)N[C@@H]2C(=O)N3[C@@H]2SC(C)(C)[C@@H]3C(=O)O)c2ccccc2)c(C(=O)O)[nH]1 [V, D-α-(2-methyl-4-carboxyimidazole-5-carboxamido) benzylpenicillin]	50 µg/mL (≈ 99.7 µM)
CC1(C)S[C@@H]2[C@H](NC(=O)[C@H](N)c3ccccc3)C(=O)N2[C@H]1C(=O)O [ampicillin, reference compound]	> 500 µg/mL
CC1(C)S[C@@H]2[C@H](NC(=O)[C@H](NC(=O)c3nc(N)[nH]c3C(=O)O)c3ccccc3)C(=O)N2[C@H]1C(=O)O [VII, D-α-(2-amino-4-carboxyimidazole-5-carboxamido)benzylpenicillin]	50 µg/mL (≈ 99.5 µM)
